Test results as given in US8710045B2, “Agents for preventing and treating disorders involving modulation of the ryanodine receptors” (The Trustees of Columbia University in the City of New York, priority 2004, dated 2014).
Where “and” joins values, the source holds several entries; their conditions need not be identical. Equal entries are not always repeated.

Legend:
hERG = hERG (Homo sapiens, UniProt Q12809); test: hERG current, PatchXpress 7000A automatic parallel patch clamp in hERG-transfected HEK 293 cells (Example 6); details: human, HEK 293 cells stably transfected with hERG cDNA
Description: (§1) HEK293 cells were transfected with a plasmid containing the hERG cDNA and a neomycin resistance gene. Stable transfectants were selected by culturing the cells in the presence of G418. The selection pressure was maintained by continued culture in the presence of G418. […] Cells for use in electrophysiology were cultured in 35 mm dishes.
(§2) Onset and steady state block of hERG current was measured using a pulse pattern with fixed amplitudes (conditioning prepulse: +20 mV for 2 seconds; test pulse: −50 mV for 2 seconds) repeated at 10 second intervals, from a holding potential of −80 mV. Peak tail current was measured during the 2 second step to −50 mV. A steady state was maintained for at least 30 seconds before applying the test compound or the positive control. Peak tail current was monitored until a new steady state was achieved. Test compound concentrations were applied cumulatively in ascending order without washout between applications.
(§3) Data acquisition and analysis was performed using the suite of pCLAMP (Vre. 8.2) programs (Axon Instruments, Union City, Calif.). Steady state was defined by the limiting constant rate of change with time (linear time dependence). The steady state before and after application of the test or control compounds was used to calculate the percentage of current inhibited at each concentration. […] Nonlinear squares fits were solved with the Solver add-in for Excel 2000 (Microsoft, Redmond, Wash.).
(§4) Multiple compounds of the invention were tested for their effects on hERG currents. The compounds tested were: ARM036-Na, ARM047, ARM048, ARM050, ARM057, ARM064, ARM074, ARM075, ARM076, ARM077, ARM101, ARM102, ARM103, ARM104, ARM106, ARM107 and ARM26. […] Electrophysiological recordings were made using the PatchXpress 7000 A (Molecular Devices) automatic parallel patch clamp system. […] The duration of exposure to each test concentration was 5 minutes.

hERG current = hERG current (Homo sapiens, UniProt Q12809); test: as above; details: for Individual Data (% Inhibition): single cell; for hERG current inhibition at the highest concentration tested: highest concentration tested (10 μM)
Description: as §1, §2, §3, §4

PKA-phosphorylated RyR2 = target: T1, PKA-phosphorylated RyR2 (Homo sapiens, UniProt Q92736); test: FKBP12.6 rebinding assay: FKBP12.6 binding to PKA-phosphorylated RyR2 in cardiac SR; details: compound 0.5-1000 nM; Michaelis-Menten curve fitting
T1 construct: from tissue
Description: Samples are centrifuged at 95,000 g for 10 min and the pellets are washed three times in 0.2 ml imidazole buffer. The final pellets are pooled and resuspended in imidazole buffer (final concentration≈10 μg/μl). […] Samples then are centrifuged at 100,000 g for 10 minutes and pellets washed 3 times with imidizol buffer. […] Immunoblots are developed using an anti-FKBP antibody (1:3,000 dilution). […] The intracellular solution contains (in mM): CsCl, 60; CaCl2, 1; EGTA, 11; MgCl2, 1; K2ATP, 5; HEPES, 10; aspartic acid, 50; pH 7.4 (CsOH). Under these conditions, it is expected that the measured current was carried by Ba^2+ primarily through L-type calcium channels which is referred to as ICa,L. Drugs are applied by a local solution changer and reach the cell membrane within 1 s.
The FKBP12.6 rebinding assay described above is used to determine the amount of FKBP12.6 binding to PKA-phosphorylated RyR2 at various concentrations (0.5-1000 nM) of the compounds shown. EC50 values are calculated using Michaelis-Menten curve fitting.
The EC50 values are calculated using Michaelis-Menten curve fitting.

[1] = Individual Data (% Inhibition), single cell
[2] = Individual Data (% Inhibition), 10 μM, single cell
[3] = hERG current inhibition at the highest concentration tested, highest concentration tested (10 μM)

T1 sequence (Q92736 whole entry): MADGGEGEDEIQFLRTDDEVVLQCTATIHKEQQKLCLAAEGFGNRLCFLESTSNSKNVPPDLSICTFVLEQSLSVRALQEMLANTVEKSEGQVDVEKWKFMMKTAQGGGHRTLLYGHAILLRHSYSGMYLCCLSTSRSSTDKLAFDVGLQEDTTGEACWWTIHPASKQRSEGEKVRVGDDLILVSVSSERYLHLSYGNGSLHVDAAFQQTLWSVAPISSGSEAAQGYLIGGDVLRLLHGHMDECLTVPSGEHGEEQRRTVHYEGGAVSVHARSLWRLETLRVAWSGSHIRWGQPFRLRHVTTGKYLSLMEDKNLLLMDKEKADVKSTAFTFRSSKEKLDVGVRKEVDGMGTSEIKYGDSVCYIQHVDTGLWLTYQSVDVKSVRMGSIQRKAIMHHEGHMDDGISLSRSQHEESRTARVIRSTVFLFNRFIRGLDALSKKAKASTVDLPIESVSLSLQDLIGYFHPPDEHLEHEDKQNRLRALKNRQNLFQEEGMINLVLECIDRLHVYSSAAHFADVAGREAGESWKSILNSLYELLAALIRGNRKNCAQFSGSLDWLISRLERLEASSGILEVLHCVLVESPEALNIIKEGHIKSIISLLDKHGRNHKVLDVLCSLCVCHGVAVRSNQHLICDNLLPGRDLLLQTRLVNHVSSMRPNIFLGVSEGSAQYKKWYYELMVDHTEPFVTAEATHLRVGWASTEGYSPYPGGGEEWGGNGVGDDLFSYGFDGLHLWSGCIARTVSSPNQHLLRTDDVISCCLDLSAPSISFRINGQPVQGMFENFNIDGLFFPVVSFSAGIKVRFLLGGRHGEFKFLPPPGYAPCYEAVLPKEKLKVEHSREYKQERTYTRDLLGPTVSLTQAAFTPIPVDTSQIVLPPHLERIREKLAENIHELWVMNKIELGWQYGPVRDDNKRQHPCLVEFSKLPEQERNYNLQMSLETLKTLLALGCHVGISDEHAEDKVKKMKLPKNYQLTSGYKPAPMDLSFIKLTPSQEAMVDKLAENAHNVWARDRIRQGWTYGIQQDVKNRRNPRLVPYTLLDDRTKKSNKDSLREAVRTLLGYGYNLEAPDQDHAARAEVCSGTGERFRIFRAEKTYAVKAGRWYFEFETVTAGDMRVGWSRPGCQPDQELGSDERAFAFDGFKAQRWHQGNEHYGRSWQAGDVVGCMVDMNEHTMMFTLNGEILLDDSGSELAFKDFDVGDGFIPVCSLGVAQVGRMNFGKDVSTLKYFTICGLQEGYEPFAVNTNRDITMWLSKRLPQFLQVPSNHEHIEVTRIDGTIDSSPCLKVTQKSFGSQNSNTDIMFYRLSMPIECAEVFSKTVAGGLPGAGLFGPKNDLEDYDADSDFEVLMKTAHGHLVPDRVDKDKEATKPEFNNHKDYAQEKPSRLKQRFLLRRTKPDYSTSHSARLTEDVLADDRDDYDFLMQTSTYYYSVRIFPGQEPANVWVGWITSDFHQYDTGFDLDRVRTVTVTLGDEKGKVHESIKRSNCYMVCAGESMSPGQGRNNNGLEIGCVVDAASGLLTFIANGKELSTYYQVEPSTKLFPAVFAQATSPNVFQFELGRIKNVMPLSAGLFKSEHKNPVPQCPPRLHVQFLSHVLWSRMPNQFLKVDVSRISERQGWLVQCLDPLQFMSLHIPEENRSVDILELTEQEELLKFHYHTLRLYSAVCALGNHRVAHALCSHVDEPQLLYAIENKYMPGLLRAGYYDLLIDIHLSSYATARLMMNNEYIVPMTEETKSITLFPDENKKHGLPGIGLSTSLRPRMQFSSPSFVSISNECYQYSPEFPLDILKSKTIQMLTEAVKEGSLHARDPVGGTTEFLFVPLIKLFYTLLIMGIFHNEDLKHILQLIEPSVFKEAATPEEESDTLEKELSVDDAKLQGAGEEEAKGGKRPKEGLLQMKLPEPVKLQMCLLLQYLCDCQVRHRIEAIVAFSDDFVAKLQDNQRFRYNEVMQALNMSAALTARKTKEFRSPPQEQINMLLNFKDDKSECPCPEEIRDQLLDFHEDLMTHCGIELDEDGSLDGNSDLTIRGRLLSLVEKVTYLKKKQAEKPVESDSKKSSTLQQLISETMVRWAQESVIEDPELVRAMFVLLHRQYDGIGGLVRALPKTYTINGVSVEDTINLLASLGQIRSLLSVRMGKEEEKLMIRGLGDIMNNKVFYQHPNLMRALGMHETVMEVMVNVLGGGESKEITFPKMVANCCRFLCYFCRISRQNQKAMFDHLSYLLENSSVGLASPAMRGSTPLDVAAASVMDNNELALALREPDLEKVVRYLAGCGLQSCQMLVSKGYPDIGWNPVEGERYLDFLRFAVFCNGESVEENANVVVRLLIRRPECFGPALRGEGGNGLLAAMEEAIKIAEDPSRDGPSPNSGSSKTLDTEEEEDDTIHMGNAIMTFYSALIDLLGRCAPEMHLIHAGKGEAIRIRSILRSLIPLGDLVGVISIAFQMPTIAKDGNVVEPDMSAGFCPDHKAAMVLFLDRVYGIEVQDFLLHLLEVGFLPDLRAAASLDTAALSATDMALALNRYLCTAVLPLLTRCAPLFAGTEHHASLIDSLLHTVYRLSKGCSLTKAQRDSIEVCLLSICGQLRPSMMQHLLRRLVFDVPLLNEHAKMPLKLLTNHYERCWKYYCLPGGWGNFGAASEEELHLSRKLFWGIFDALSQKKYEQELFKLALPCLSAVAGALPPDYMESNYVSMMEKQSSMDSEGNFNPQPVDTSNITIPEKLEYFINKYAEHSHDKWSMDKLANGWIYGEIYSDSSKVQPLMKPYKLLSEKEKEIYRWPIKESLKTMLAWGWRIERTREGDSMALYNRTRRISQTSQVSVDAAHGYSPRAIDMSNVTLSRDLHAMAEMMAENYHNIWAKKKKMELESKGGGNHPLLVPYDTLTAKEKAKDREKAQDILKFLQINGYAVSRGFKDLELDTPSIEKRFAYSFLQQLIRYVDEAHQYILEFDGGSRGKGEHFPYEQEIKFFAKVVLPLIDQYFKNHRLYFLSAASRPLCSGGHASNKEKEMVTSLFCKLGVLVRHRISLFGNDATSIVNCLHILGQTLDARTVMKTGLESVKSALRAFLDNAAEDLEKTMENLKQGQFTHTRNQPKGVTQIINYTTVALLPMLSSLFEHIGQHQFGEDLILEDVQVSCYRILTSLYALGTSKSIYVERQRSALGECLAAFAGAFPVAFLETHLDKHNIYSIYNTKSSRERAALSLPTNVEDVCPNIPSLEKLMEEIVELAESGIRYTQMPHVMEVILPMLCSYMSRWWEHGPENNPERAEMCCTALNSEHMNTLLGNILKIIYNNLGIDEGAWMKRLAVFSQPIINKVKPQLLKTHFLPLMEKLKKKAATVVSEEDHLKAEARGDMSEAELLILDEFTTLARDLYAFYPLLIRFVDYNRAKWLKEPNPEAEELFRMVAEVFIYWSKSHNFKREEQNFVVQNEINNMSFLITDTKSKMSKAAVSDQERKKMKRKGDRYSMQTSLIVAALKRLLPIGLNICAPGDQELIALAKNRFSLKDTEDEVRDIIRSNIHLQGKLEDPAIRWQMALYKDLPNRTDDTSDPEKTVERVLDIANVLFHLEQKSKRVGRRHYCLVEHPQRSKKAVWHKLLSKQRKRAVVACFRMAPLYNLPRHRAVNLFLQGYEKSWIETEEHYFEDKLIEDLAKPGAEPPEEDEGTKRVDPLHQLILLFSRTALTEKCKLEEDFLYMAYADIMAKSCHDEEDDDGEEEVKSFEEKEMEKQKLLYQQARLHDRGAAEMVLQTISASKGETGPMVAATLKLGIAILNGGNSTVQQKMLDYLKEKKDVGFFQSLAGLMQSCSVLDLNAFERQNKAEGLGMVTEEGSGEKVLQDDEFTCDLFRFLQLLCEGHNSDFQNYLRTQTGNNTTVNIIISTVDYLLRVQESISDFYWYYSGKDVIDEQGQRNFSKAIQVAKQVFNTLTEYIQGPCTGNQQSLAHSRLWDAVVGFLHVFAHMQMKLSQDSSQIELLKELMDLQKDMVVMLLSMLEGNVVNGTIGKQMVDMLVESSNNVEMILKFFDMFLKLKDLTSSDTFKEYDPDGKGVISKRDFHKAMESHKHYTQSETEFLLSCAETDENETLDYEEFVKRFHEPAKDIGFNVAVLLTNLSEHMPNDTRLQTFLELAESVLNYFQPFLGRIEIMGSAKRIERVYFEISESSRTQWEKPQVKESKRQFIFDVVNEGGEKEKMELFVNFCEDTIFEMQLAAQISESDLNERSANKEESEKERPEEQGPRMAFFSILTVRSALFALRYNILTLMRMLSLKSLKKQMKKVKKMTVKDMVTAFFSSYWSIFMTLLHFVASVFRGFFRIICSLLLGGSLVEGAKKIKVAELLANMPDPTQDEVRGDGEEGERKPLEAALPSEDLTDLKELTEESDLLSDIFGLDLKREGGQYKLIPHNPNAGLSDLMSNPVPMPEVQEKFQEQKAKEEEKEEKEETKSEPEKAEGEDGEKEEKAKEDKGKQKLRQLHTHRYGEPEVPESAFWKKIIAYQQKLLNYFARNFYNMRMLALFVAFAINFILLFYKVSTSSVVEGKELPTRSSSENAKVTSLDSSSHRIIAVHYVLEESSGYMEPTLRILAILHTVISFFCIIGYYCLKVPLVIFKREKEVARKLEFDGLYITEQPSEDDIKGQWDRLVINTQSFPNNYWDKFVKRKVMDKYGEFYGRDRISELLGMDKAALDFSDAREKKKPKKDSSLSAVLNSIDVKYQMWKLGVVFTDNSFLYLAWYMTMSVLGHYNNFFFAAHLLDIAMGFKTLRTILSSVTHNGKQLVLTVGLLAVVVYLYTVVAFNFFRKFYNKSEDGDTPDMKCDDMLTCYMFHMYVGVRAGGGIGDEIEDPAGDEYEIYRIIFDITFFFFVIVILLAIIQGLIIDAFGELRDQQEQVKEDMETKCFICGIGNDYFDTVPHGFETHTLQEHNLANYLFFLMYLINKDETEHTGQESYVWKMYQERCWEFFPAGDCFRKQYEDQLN
T1 sequence (P68106 whole entry partner): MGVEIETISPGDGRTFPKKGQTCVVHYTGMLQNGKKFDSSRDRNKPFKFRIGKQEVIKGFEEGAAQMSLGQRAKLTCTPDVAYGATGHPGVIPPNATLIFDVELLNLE

| Structure (SMILES) | inhibition at 5 min, 0.1 µM (hERG; [1]) | inhibition at 5 min, 1 µM (hERG; [1]) | inhibition at 5 min, 10 µM (hERG; [2]) | inhibition at 5 min, 0.01 µM (hERG; Mean % hERG Inhibition) | inhibition at 5 min, 0.1 µM (hERG; Mean % hERG Inhibition) | inhibition at 5 min, 1 µM (hERG; Mean % hERG Inhibition) | inhibition at 5 min, 10 µM (hERG; Mean % hERG Inhibition, 10 μM) | inhibition at 5 min, 10 µM (hERG; [3]) | IC50 (hERG current) | EC50 (PKA-phosphorylated RyR2) | Mean % hERG Inhibition (hERG current; 0.01 μM) | Mean % hERG Inhibition (hERG current; 0.1 μM) | Mean % hERG Inhibition (hERG current; 1 μM) | Mean % hERG Inhibition (hERG current; 10 μM) | hERG current inhibition at the highest concentration tested (hERG current) | further results |
| --- | --- | --- | --- | --- | --- | --- | --- | --- | --- | --- | --- | --- | --- | --- | --- | --- |
| O=C(N1CCN(Cc2ccc3c(c2)OCO3)CC1)N1CCSc2ccccc2C1 [S101] | 5.1% | 18.9% | 66.7% | 3.4% | 6.4% | 23% | 65.8% | < 50% | 4410 nM | 105 nM |  |  |  |  |  | inhibition at 5 min, 0.01 µM (hERG; [1]): 4.3%; Individual Data (% Inhibition) (hERG current; 0.01 μM, listed as ARM101, 0.01 µM): 2.5%; Individual Data (% Inhibition) (hERG current; 0.1 μM, listed as ARM101, 0.1 µM): 7.6%; Individual Data (% Inhibition) (hERG current; 1 μM, listed as ARM101, 1 µM): 27.0%; Individual Data (% Inhibition) (hERG current; 10 μM, listed as ARM101, 10 µM): 64.9% |
| CCN(CC)C(=O)N1CCSc2ccc(OC)cc2C1 [S48] | 4.2% | 4.7% | 15.2% | 1.3% | 3.6% | 4.1% | 14% | < 50% |  | 100 nM |  |  |  |  |  | Individual Data (% Inhibition) (hERG current; 0.01 μM, listed as ARM048, 0.01 µM): 0.5% and 2.0%; Individual Data (% Inhibition) (hERG current; 0.1 μM, listed as ARM048, 0.1 µM): 2.9%; Individual Data (% Inhibition) (hERG current; 1 μM, listed as ARM048, 1 µM): 3.5%; Individual Data (% Inhibition) (hERG current; 10 μM, listed as ARM048, 10 µM): 12.8% |
| COc1ccc2c(c1)CNCCS2 [S26] | 12.3% | 11.3% | 56.4% | 8.9% | 10.5% | 12.3% | 58.3% |  | 7030 nM | 40 nM |  |  |  |  |  | inhibition at 5 min, 0.01 µM (hERG; [1]): 9.1%; Individual Data (% Inhibition) (hERG current; 0.01 μM): 8.7%; Individual Data (% Inhibition) (hERG current; 0.1 μM): 8.6%; Individual Data (% Inhibition) (hERG current; 1 μM): 13.2%; Individual Data (% Inhibition) (hERG current; 10 μM): 60.1% |
| COc1ccc2c(c1)CN(C(=O)N1CCNCC1)CCS2 [S64] | 9.9% |  | 32% | 0.2% | 9% | 9.6% | 30.3% | < 50% |  | 44 nM |  |  |  |  |  | Individual Data (% Inhibition) (hERG current; 0.01 μM, listed as ARM064, 0.01 µM): −0.6% and 1.0%; Individual Data (% Inhibition) (hERG current; 0.1 μM, listed as ARM064, 0.1 µM): 8.1%; Individual Data (% Inhibition) (hERG current; 1 μM, listed as ARM064, 1 µM): 13.2% and 6.0%; Individual Data (% Inhibition) (hERG current; 10 μM, listed as ARM064, 10 µM): 28.5% |
| O=C(N1CCCCC1)N1CCSc2ccccc2C1 [S102] |  |  |  |  |  |  |  |  |  | 135 nM | 2.5% | 4.2% | 5.7% | 47.3% | less than 50% | Individual Data (% Inhibition) (hERG current; 0.01 μM, listed as ARM102, 0.01 µM): 0.5% and 4.4%; Individual Data (% Inhibition) (hERG current; 0.1 μM, listed as ARM102, 0.1 µM): 1.8% and 6.5%; Individual Data (% Inhibition) (hERG current; 1 μM, listed as ARM102, 1 µM): 0.8% and 10.5%; Individual Data (% Inhibition) (hERG current; 10 μM, listed as ARM102, 10 µM): 46.2% and 48.3% |
| COc1ccc2c(c1)CN(C(=O)N1CCN(Cc3ccc4c(c3)OCO4)CC1)CCS2 [S47] |  |  |  |  |  |  |  |  | 2500 nM | 20 nM | 2.7% | 9.7% | 29.6% | 78.0% |  | Individual Data (% Inhibition) (hERG current; 0.01 μM, listed as ARM047, 0.01 µM): 1.7% and 3.7%; Individual Data (% Inhibition) (hERG current; 0.1 μM, listed as ARM047, 0.1 µM): 6.5% and 12.9%; Individual Data (% Inhibition) (hERG current; 1 μM, listed as ARM047, 1 µM): 30.8% and 20.4% and 37.5%; Individual Data (% Inhibition) (hERG current; 10 μM, listed as ARM047, 10 µM): 82.1% and 75.9% |
| COC(=O)C(=O)N1CCSc2ccc(OC)cc2C1 [S57] |  |  |  |  |  |  |  |  |  | 73 nM | 0.2% | 7.3% | 2.7% | 13.6% | less than 50% | Individual Data (% Inhibition) (hERG current; 0.01 μM, listed as ARM057, 0.01 µM): 0.3% and 0.0%; Individual Data (% Inhibition) (hERG current; 0.1 μM, listed as ARM057, 0.1 µM): 4.1% and 10.4%; Individual Data (% Inhibition) (hERG current; 1 μM, listed as ARM057, 1 µM): 5.3% and 0.1%; Individual Data (% Inhibition) (hERG current; 10 μM, listed as ARM057, 10 µM): 18.3% and 8.8% |
| COc1ccc2c(c1)CN(C(=O)N1CCCCC1)CCS2 [S50] |  |  |  |  |  |  |  |  |  | 40 nM | 1.8% | 3.7% | 6.1% | 24.2% | less than 50% | Individual Data (% Inhibition) (hERG current; 0.01 μM, listed as ARM050, 0.01 µM): 1.1% and 2.4%; Individual Data (% Inhibition) (hERG current; 0.1 μM, listed as ARM050, 0.1 µM): 2.7% and 4.7%; Individual Data (% Inhibition) (hERG current; 1 μM, listed as ARM050, 1 µM): 7.1% and 5.1%; Individual Data (% Inhibition) (hERG current; 10 μM, listed as ARM050, 10 µM): 27.0% and 21.3% |
| O=C(NO)N1CCSc2ccccc2C1 [S74] |  |  |  |  |  |  |  |  |  | 220 nM | 1.9% | 4.8% | 1.3% | 9.5% |  | Individual Data (% Inhibition) (hERG current; 0.01 μM, listed as ARM074, 0.01 µM): 0.8% and 3.0%; Individual Data (% Inhibition) (hERG current; 0.1 μM, listed as ARM074, 0.1 µM): 5.9% and 3.7%; Individual Data (% Inhibition) (hERG current; 1 μM, listed as ARM074, 1 µM): 0.2% and 2.4% and 5.6%; Individual Data (% Inhibition) (hERG current; 10 μM, listed as ARM074, 10 µM): 9.3% and 9.6% and 14.0% |
